Patent US20180086817A1, “Preventing, Treating or Arresting Alzheimer's, Stroke, Cardiovascular and other Amyloid Related Diseases” (priority 2016, published 2018)

Columns and labels:
[1] = target: T1, L68Q cystatin C (Homo sapiens, UniProt P01034, L94Q); assay: Preliminary trial of N-acetylcysteine in HCCAA patients expressing L68Q cystatin C, with biopsy; type: in vivo
T1 construct: confirmed by genetic screen to express L68Q cystatin C; from tissue; host or cells: HCCAA patients; biopsy (tissue not given)
T1 sequence (P01034 27-146 L94Q): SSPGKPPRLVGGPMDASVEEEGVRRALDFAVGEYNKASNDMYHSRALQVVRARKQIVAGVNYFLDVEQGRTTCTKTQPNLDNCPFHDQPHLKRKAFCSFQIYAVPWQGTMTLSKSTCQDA
Procedure: For an early test of effectiveness of glutathione supportive therapy in the treatment of HCCAA and similar disease involving plaque formation, human trials are planned using accepted and previously approved therapeutic interventions. Initial trials involve n-acetylcysteine based on its chemistry and historical acceptance in human therapies. Doses ranging from as low as 200 mg/day, but at least in the early trials, at higher levels to emphasize effect have been proposed with initial regulatory approvals in high risk HCCAA patients.
Three persons who had been identified through characteristic HCCAA symptoms confirmed by genetic screen to express L68Q cystatin C agreed to participate in a preliminary trial with a prototype drug to support antioxidant and other effects of GSH. N-acetylcysteine was used as a GSH-support/anti-cystatin-C-polymerization archetypical drug for conceptual proof and support of the hypotheses supporting this invention. […] One patient fully complied with the prescribed protocol. Two patients were only partially compliant. The fully compliant patient presented with a 50% reduction in plaques observed on biopsy.
Treatments are continuing, augmented by confirmatory/advisory biopsies. Biopsy intervals may be approximately weekly, but longer intervals are envisioned as sufficient to monitor effects and dosages and to encourage compliance in testing and treatment maintenance. For example, biopsy intervals may be weekly, biweekly, monthly, bimonthly, quarterly, semi-annual, annual, etc. Biopsy appointments may be used both for treatment/disease monitoring, but also to maintain patient attention and interaction. Medical advisory panels and insurance issues may also be considered in determining the frequency and type(s) of biopsies.

[2] = system: cellular glutathione; conditions: cited from earlier work

Row | disease course ([1]; all three HCCAA patients (L68Q cystatin C), one fully and two partially compliant) | reduction in plaques observed on biopsy ([1]; fully compliant patient) [%] | aggregated protein previously observed ([1]; one of the partially compliant patients) | disease course ([1]; remaining non-compliant patient) | Structure (SMILES) | effect on glutathione over time ([2]; 25 mg/kg OTC in conjunction with 800 mg/day glutathione IM) | time by which effect wanes in plasma ([2]; dose of about 22-65 mg/kg, post administration) [h] | cellular glutathione ([2]; dose of about 22-65 mg/kg, shortly after administration)
1 | disease arrest | 50 | significant reduction | disease arrest | CC(=O)N[C@@H](CS)C(=O)O [N-acetylcysteine] | – | – | –
2 | – | – | – | – | O=C1N[C@H](C(=O)O)CS1 [OTC, L-2-oxothiazolidine-4-carboxolate] | continued effect | ≤ 8 | double
